Experimental data from US20140322744A1, “CLONABLE TAG FOR CORRELATIVE LIGHT AND ELECTRON MICROSCOPY LABELING” (INSTITUT CURIE, priority 2011, published 2014).

System: E. coli K-12
Test: Minimal Inhibitory Concentration (MIC) growth test of EuCl3
Assay type: cell-based
Source text: The inventors were first interested in evaluating Eu toxicity in their working conditions. To this purpose, they have submitted E. coli to a serial of growing tests called Minimal Inhibitory Concentration (MIC). This test aimed to determine the lowest concentration able to inhibit the bacteria growth. It consisted in growing bacteria in presence of several concentrations of the tested compound.
Serial dilution series of the substance to be tested were inoculated with bacteria at 0.3 D.O550 nm diluted 1/16000 in culture medium. D.O550 nm was followed until stationary phase. Minimal concentration of the test substance preventing stationary phase was considered as MIC.
For the Eu MIC determination, the inventors have tested EuCl3 concentrations between 100 μM and 2 mM. E. coli K-12 and pBAD arabinose inducible MTtag transformed E. coli K-12 were tested. E. coli K12 were transformed by electroporation with the pBAD plasmid down control of BAD promoter (Guzman, L. M., et al. J Bacteriol 177, 4121-4130 (1995); Khlebnikov, A. & Keasling, J. D. Biotechnol. Prog. 18, 672-674 (2002)). Bacteria pre-cultures were produced at 37° C. in Luria-Bertani (LB) medium with added ampicillin ([…]) in transformed strain. The pre-cultures were used to inoculate tubes of minimum media M9 (with or without ampicillin) until exponential phase D.O550 nm≈0.3. Then, 1/16000 dilutions were prepared in M9 medium (with or without ampicillin). 1 μl of the diluted bacteria were added to 200 μl of M9-EuCl3 at different concentrations in 96 wells plates. Bacterial grow was followed until stationary phase. The D.O550 nm was measured on a Tecan Infinite 200 PRO.

SMILES: [Cl][Eu]([Cl])[Cl] [EuCl3]
- Effect on bacterial growth (E. coli K-12 MG1655 growth curve, several concentrations of Europium (FIG. 1)): doesn't have a dramatic negative effect on bacterial growth
- MIC: EuCl3 concentration until which bacteria is viable (E. coli K-12 and MTtag transformed E. coli K-12, M9 medium, 100 μM to 2 mM tested, repeated 10 times): higher than 2 mM
- Precipitation above maximal concentration tested (M9 medium, maximal concentration tested 2 mM): precipitates at higher concentrations
- EuCl3 concentration after which growing slow down is observed (does not impact bacterial viability): > 1 mM
- Toxicity for E. coli K-12 (transformed or not): not toxic
